# Data reported in US20070099982A1, “Use of chp as an inhibitor of glutathione s-transferases and collagen IV” (priority 2003, published 2007).
# Read-outs that look alike come from different tables or passages of the source.
# Tests used:
# [1] = test system: α-glutathione S transferase; conditions: mean of 12 healthy subjects, 4×2.0 g CHP/day over 14 days
# collagen IV = conditions: mean of 12 healthy subjects, 4×2 g CHP per day over 14 days
# Text: CHP was repeatedly administered over 14 days, using 4×2 g of CHP per day.
structure (smiles),measurement,setting,value
"O=C(O)[C@@H]1C[C@@H](O)CN1 (relative stereo) [CHP, cis-hydroxy-L-proline]","Concentration of α-glutathione S transferase in serum, MEAN",[1]; day 0,0.46
same,"Concentration of α-glutathione S transferase in serum, MEAN",[1]; day 7,0.37
same,"Concentration of α-glutathione S transferase in serum, MEAN",[1]; day 13,0.26
same,"Concentration of α-glutathione S transferase in serum, MEAN",[1]; day 13.25,0.20
same,"Concentration of α-glutathione S transferase in serum, MEAN",[1]; day 14,0.21
same,"Concentration of α-glutathione S transferase in serum, MEAN",[1]; day 17,0.18
same,"Concentration of collagen IV in serum, MEAN",collagen IV; day 0,115.39
same,"Concentration of collagen IV in serum, MEAN",collagen IV; day 7,93.03
same,"Concentration of collagen IV in serum, MEAN",collagen IV; day 13,99.79
same,"Concentration of collagen IV in serum, MEAN",collagen IV; day 13.25,92.87
same,"Concentration of collagen IV in serum, MEAN",collagen IV; day 14,97.77
same,"Concentration of collagen IV in serum, MEAN",collagen IV; day 17,93.45
